Reference: paper PMC9374667 (Communications Biology, 2022)
Values joined by “and” are separate entries in the source; they are usually repeats but may differ in a detail not shown here. Equal entries are not always repeated.

Legend:
[1] = tested on: TNF-α, IL-6, MCP-1, F4/80 (Adgre1), CD11c (Itgax); assay: qRT-PCR of inflammatory related genes and macrophage marker genes in eWAT; format: in vivo, mice; parameters: key to Tnf-α / IL-6 / Ccl2 / Adgre1 / Itgax: relative expression normalized to gapdh, 2^-ΔΔCt method
Source text: Total RNA was isolated from 3T3-L1 cells and adipose tissue homogenates using Trizol reagent (Invitrogen, Carlsbad, CA, USA). RNA concentration and purity were examined at 260/280 nm using a nanodrop spectrophotometer (NanoDrop One, Thermo Fisher Scientific, USA). The total RNA was reverse transcribed to cDNA using the EasyScript All-in-One First-Strand cDNA Synthesis SuperMix for qPCR kit (TransGen Biotech, Beijing, China). The quantitative reverse transcription polymerase chain reaction was performed using TransStart Top Green qPCR SuperMix (TransGen Biotech, Beijing, China) and an Applied Biosystems 7500 RealTime PCR System (Life Technologies, USA). Relative expression levels were normalized to gapdh expression and quantified using the 2^-ΔΔCt method. The primers were synthesized by Shanghai Sangon Biotech, and the detailed primer sequences were shown in Supplementary Table 5 in the supplementary materials.

TBK1 = target: T1, TBK1 (Mus musculus, UniProt Q9WUN2); assay: TBK1 activity assay in BAT; format: in vivo, mice; parameters: The adipose tissue was ultrasound-crushed in PBS buffer solution (1:9 w/v) to prepare the tissue homogenate; from tissue; host or cells: epididymal white adipose tissue (eWAT) and brown adipose tissue (BAT) of C57BLKS WT and db/db mice; conditions: for the expression of TBK1 in BAT of db/db mice: Figure 6m, individual values
T1 sequence (Q9WUN2 1-729): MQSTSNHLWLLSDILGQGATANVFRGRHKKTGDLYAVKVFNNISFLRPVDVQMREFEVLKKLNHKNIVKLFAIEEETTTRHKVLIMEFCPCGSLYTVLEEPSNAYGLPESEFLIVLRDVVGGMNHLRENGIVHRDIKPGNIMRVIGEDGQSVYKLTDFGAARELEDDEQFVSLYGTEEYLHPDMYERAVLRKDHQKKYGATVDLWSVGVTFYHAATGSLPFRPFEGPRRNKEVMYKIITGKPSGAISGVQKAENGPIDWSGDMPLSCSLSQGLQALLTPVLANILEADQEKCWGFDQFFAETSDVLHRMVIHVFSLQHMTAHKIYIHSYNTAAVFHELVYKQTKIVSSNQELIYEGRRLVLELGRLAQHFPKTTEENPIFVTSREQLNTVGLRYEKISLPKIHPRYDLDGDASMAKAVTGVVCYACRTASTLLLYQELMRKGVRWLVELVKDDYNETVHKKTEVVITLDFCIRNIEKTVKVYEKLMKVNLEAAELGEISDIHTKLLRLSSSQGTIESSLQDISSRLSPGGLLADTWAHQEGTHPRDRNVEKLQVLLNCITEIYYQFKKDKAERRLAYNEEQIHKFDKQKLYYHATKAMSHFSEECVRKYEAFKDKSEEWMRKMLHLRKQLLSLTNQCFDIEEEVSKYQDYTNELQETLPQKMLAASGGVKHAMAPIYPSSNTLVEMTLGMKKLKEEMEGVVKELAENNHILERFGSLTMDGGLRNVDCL
Description: The adipose tissue was ultrasound-crushed in PBS buffer solution (1:9 w/v) to prepare the tissue homogenate. The tissue homogenate was centrifuged at 5000 × g for 10 min, and the supernatant was taken for detection. Briefly, samples or standards were added to the microplates pre-coated with IKKε antibody or TBK1 antibody. Then horseradish peroxidase (HRP) labeled antibody was added and incubated at 37 °C for 60 min. After thorough washing, the 3,3′,5,5′-tetramethylbenzidine (TMB) substrate was used for color development, and the absorbance (OD value) was determined at 450 nm.

[2] = Figure 5g, BBR 150mg/kg, replicates, first Veh value = 1

Structure (SMILES)	Adgre1 [1, 2]	Ccl2 [1, 2]	IL-6 [1, 2]	Itgax [1, 2]	Tnf-α [1, 2]	mRNA levels of TNF-α, IL-6, MCP-1, F4/80 (Adgre1) and CD11c (Itgax) in eWAT ([1]; db/db mice, 5 weeks of treatment, vs vehicle)	the expression of TBK1 in BAT of db/db mice (TBK1; db/db+BJ 75mg/kg)	the expression of TBK1 in BAT of db/db mice (TBK1; db/db+BJ 150mg/kg)	TBK1 activity and expression levels in BAT (TBK1; db/db mice, both doses of BJ)
COc1ccc2cc3[n+](cc2c1OC)CCc1cc2c(cc1-3)OCO2 [BBR, Berberine chloride dihydrate]	0.3 and 0.2426 and 0.368	0.8769 and 0.7967 and 0.7737	0.5766 and 0.5775 and 0.5396	0.806 and 0.855 and 0.8182	0.6975 and 0.7551 and 0.7391	reduced the mRNA levels	–	–	–
CC(C)Cc1ccc(C(C)C(=O)[O-])cc1.COc1ccc2cc3[n+](cc2c1OC)CCc1cc2c(cc1-3)OCO2.O.O.O.O [BJ, berberine-ibuprofen]	–	–	–	–	–	–	0.366 U/g and 0.397 U/g and 0.402 U/g and 0.336 U/g and 0.384 U/g and 0.344 U/g	0.338 U/g and 0.377 U/g and 0.358 U/g and 0.428 U/g and 0.335 U/g and 0.369 U/g	had no effect
